Test results as given in ChEMBL document CHEMBL3507680, “University of Dundee, Gates Library screen for HepG2 cell viability”.

Assay: Human HepG2 cell viability assay in 384 well format
Assay type: toxicity, cell-based
Set-up: dose 125 nL, time 70.5 hour; cytotoxicity at 70.5 h: concentration not given beside the values
Conditions: HepG2 cells, read-out: Inhibition

Structure (SMILES) | cytotoxicity at 70.5 h
Cc1cccc(-c2nc(CN3CCCC3Cn3cc(C)cn3)no2)c1 (configuration not stated) | 6.59%
Cc1cnn(CC2CCCN2Cc2noc(C)n2)c1 (configuration not stated) | -9.78%
CN(C)CC1CN(Cc2coc(-c3cccc(F)c3)n2)CCO1 (configuration not stated) | 3.34%
COC(=O)CC(NC(=O)c1ccccc1OC)c1cccs1 (configuration not stated) | 5.97%
COc1ccc(Cl)cc1C(=O)NC(CC(=O)O)c1cccs1 (configuration not stated) | -11%
COc1ccc(Br)c(C(=O)NC(CC(=O)O)c2cccs2)c1 (configuration not stated) | -11.5%
Cc1ccc(C(=O)NCc2ccc(N3CCCC(C(N)=O)C3)cc2)o1 (configuration not stated) | -14.6%
CCOc1ccccc1C(=O)NC(CC(=O)O)c1cccs1 (configuration not stated) | -6.28%
COc1ccc(C)cc1C(=O)NC(CC(=O)O)c1cccs1 (configuration not stated) | -11.4%
Cc1cnn(C2CCCN(C(=O)c3cc(Cl)c4c(c3)OCO4)C2)c1 (configuration not stated) | 7.73%
O=C(c1ccc2c(c1)OCCCO2)N1CCCC(n2ccnc2)C1 (configuration not stated) | -8.38%
CN(C)CC1CN(Cc2coc(-c3ccc(Cl)cc3)n2)CCO1 (configuration not stated) | 12.9%
COc1cc(C(=O)NC(CC(=O)O)c2cccs2)cc(OC)c1C (configuration not stated) | -6.87%
COCCc1noc(CN2CCCC2c2c(C)nn(C)c2OC)n1 (configuration not stated) | -3.49%
CCn1cnnc1CNC(=O)N1CCC(O)CC1 | -5.8%
Cn1ccnc1CN1CCCN(C(=O)COCC2CC2)CC1 | -3.74%
O=C(CN1CCN(C(=O)c2sccc2C2CC2)CC1)NC1CC1 | 8.72%
Cc1nc(C)n(CC2CCCN2Cc2nc3ccccc3o2)n1 (configuration not stated) | -5.98%
CC(OCC1CC1)C(=O)N1CCCN(Cc2nccn2C(C)C)CC1 (configuration not stated) | -5.25%
Cn1ccnc1CN1CCCN(C(=O)CC(C2CC2)C2CC2)CC1 | 0.914%
Cc1cnn(CC2CCCN2CC(=O)NC2CCN(C3CC3)CC2)c1 (configuration not stated) | -3.72%
Cc1nc(C2CCCN(C(=O)c3cccc4c3OCO4)C2)sc1C (configuration not stated) | -2.18%
Cc1csc(C2CCCN(C(=O)c3cccc4c3OCO4)C2)n1 (configuration not stated) | -4.7%
CC(C)c1nc(C2CCCN(C(=O)c3cccc4c3OCO4)C2)no1 (configuration not stated) | -1.62%

Structure (SMILES) | cytotoxicity at 70.5 h
COCCn1cc(NC(=O)NC(C)Cc2c(F)cccc2F)cn1 (configuration not stated) | 12.3%
Cc1cc(NC(=O)NCc2cccnc2OC2CCCC2)n(C)n1 | -2.74%
COc1ncccc1CNC(=O)Nc1cc(C)nn1C | -7.29%
Cc1cccnc1NC(=O)NCc1cccnc1OC(C)C | -6.17%
Cc1ccccc1CNC(C)c1ccc(OCC(=O)NC2CC2)cc1 (configuration not stated) | 13.8%
CC(Cc1ccccc1Cl)NC(=O)Nc1cnn(CC(N)=O)c1 (configuration not stated) | -2.99%
COc1ccc(COCC(O)CNC(=O)c2cc(C)no2)cc1 (configuration not stated) | -4.49%
COc1ccc(COCC(O)CNC(=O)c2cc(C)oc2C)cc1 (configuration not stated) | 1.97%
Cc1ncccc1CNCC1CCN(CCO)CC1 | -0.718%
Cc1cnn(CC(C)NCc2ccc(OCc3cccnc3)cc2)c1 (configuration not stated) | 2.45%
Cc1cnn(CC(C)NCc2ccc(OCc3cscn3)cc2)c1 (configuration not stated) | -6.24%
Cc1nnc2n1CCN(CCOc1ccc(C(C)(C)C)cc1)C2 | -4.66%
O=C(NC1CC1)C1CCN(c2snc3ccccc23)CC1 | 15.8%
CC1CCCN(C(=O)C2CCN(c3snc4ccccc34)CC2)C1 (configuration not stated) | 5.93%
CSCC(=O)N1CCCCC1Cn1cc(C)cn1 (configuration not stated) | -1.03%
Cc1cnn(CC2CCCN2C(=O)Cc2c(C)nc(C)[nH]c2=O)c1 (configuration not stated) | 15.2%
CCc1nc(C)ncc1C(=O)N1CCOC(c2nc(C)n[nH]2)C1 (configuration not stated) | -0.337%
CCCc1n[nH]c(C2CN(CCNS(C)(=O)=O)CCO2)n1 (configuration not stated) | 25.5%
CCn1ccnc1CN1CCCN(C(=O)COC2CCCC2)CC1 | 22.5%
Cc1cc(CN(Cc2cccs2)CC2CCCO2)on1 (configuration not stated) | 20.8%
O=C(NCC(F)(F)F)C1CSCN1S(=O)(=O)c1ccccc1F (configuration not stated) | 26%
CCN1CCC(CNC(=O)C2(c3ccc(F)cc3)CC2)C1 (configuration not stated) | 52%
CCCc1n[nH]c(C2CN(CCCS(=O)(=O)N(C)C)CCO2)n1 (configuration not stated) | -4.5%
Cc1cnn(CC2CN(Cc3nccn3CC(F)(F)F)CCO2)c1 (configuration not stated) | 26.3%

Structure (SMILES) | cytotoxicity at 70.5 h
N#CC1CCN(C(=O)NCCc2ccc(Cl)s2)CC1 | -3.5%
O=C(Cc1csc(-c2ccco2)n1)N1CCN(c2ccccc2O)CC1 | -4.66%
c1ccc(Cc2noc(CN(Cc3cccs3)CC3CCCO3)n2)cc1 (configuration not stated) | -4.54%
CC(=O)N1CCN(C(=O)NCc2ccc(Cl)s2)CC1 | 20.2%
Cc1ccc(S(=O)(=O)N2CSCC2C(=O)NCC(F)(F)F)cc1C (configuration not stated) | -3.59%
N#Cc1ccc(S(=O)(=O)N2CSCC2C(=O)NCC(F)(F)F)cc1 (configuration not stated) | -5.51%
O=C(Cc1csc(-c2ccco2)n1)N1CCN(c2nccs2)CC1 | -5.89%
Cc1ccoc1C(=O)NC1CCN(Cc2ccccc2F)CC1 | 27.3%
Cc1ncsc1C(=O)NC1CCN(Cc2cccc3c2OCCO3)CC1 | -0.651%
Cc1ccoc1C(=O)NC1CCN(Cc2ccccc2C#N)CC1 | -1.98%
Cc1ccc(NC2CCN(C(=O)c3ccc(F)cc3Cl)CC2)nn1 | -3.69%
O=C(O)c1cc(S(=O)(=O)Nc2ccccc2)cc2c1OCCO2 | 4.5%
Cc1ccc(NS(=O)(=O)c2cc3c(c(C(=O)O)c2)OCCO3)cc1F | -3.64%
CCc1ccc(NS(=O)(=O)c2cc3c(c(C(=O)O)c2)OCCO3)cc1 | -0.0386%
Cc1cnn(CCNCC(O)COc2ccc(Cl)cc2)c1 (configuration not stated) | 2.45%
CC1CN(Cc2noc(C3CC3)n2)CCN1Cc1nccn1C (configuration not stated) | 4.66%
CCc1noc(CN2CCCN(C(N)=O)CC2)n1 | -12%
CCc1nc(CN2CCCC(NCc3cnn(C(C)(C)C)c3)C2)no1 (configuration not stated) | -12.7%
CC(C)OCCCNC(=O)CN1CCC(N2CCN(C)C2=O)CC1 | -18.5%
COCCc1noc(CN(C)C(=O)c2cccc(N3CCCC3=O)c2)n1 | -17%
CCc1nc(CN2CCCC(NCc3ccc(C(N)=O)cc3)C2)no1 (configuration not stated) | -10.1%
Cc1cnc(CN2CCOC(Cn3nc(C)nc3C)C2)cn1 (configuration not stated) | 18.6%
O=C1CC(N(C(=O)c2ccc3[nH]c4c(c3c2)CCCC4)C2CC2)C(=O)N1 (configuration not stated) | 39.1%
Clc1snnc1CN1CCCC(Cn2cncn2)C1 (configuration not stated) | 14.5%

Structure (SMILES) | cytotoxicity at 70.5 h
CN(Cc1ccsc1)C(=O)Nc1ccc(S(=O)(=O)N(C)C)cc1 | 3.55%
CN(Cc1ccsc1)C(=O)Nc1ccc(S(C)(=O)=O)nc1 | 2.4%
COC(=O)c1ccc(S(=O)(=O)NCc2cccnc2N(C)C)cc1 | 29.6%
CCCOc1ccc(CNC(=O)N2CCC(C(N)=O)C2)cc1 (configuration not stated) | -0.602%
CC(C)N(CC(N)=O)Cc1csc(COc2ccc(F)cc2)n1 | 43.4%
CS(=O)(=O)c1ccc(CNC(=O)N2CCC(C(N)=O)C2)cc1 (configuration not stated) | 30%
CCOc1ccnc(N2CCN(C(=O)c3cccnc3O)CC2)n1 | 1.67%
CCCc1nc(CN2CCCC2Cn2cncn2)cs1 (configuration not stated) | 17.1%
COc1cc(C)nc(N2CCN(C(=O)CCn3cc(C)cn3)CC2)n1 | -0.584%
CC(=O)Nc1nc(CN2CCCC2c2cnn(C)c2)cs1 (configuration not stated) | 31.4%
CCn1ncc2c1CCCC2NCc1cc(Cl)c(OC)c(OC)c1 (configuration not stated) | 27.8%
CCn1ncc2c1CCCC2NCc1ccc(OC)c(C)c1 (configuration not stated) | 33.6%
Cc1nc(C)n(C2CCCN(C(=O)c3sccc3C3CC3)C2)n1 (configuration not stated) | 21.5%
Cc1nn(C)c(N2CCOCC2)c1CNC1CCOc2ccccc21 (configuration not stated) | -3.07%
COc1c(C)cnc(CN2CCOC(Cn3nc(C)nc3C)C2)c1C (configuration not stated) | -1.22%
c1coc(-c2noc(CN3CCCC(Cn4cncn4)C3)n2)c1 (configuration not stated) | 26%
CCn1cc(CN2CCCN(C(=O)c3sccc3C#N)CC2)cn1 | 37.5%
CCn1ccnc1CN1CCCN(C(=O)c2sccc2C#N)CC1 | 1.96%
CCc1noc(C)c1C(=O)N1CCCC1c1c(C)nn(C)c1OC (configuration not stated) | 18%
Cc1nn(C)c(C)c1C1CCCN1Cc1cccc(C(=O)N(C)C)c1 (configuration not stated) | 37.6%
Cc1nc(CN2CCOC(c3nc(C(C)C)n[nH]3)C2)oc1C (configuration not stated) | 6.2%
CCc1nc(CN(C(C)=O)C2CCN(CCc3cnn(C)c3)C2)no1 (configuration not stated) | 21.3%
CCN1CCN(C2CCN(Cc3noc(C)n3)CC2)C1=O | 28.4%
Cc1ccc(NC(=O)NCCCc2n[nH]c(N)c2C#N)cc1 | -3.1%

Structure (SMILES) | cytotoxicity at 70.5 h
COCCOc1ccc(NC(=O)C2CCC2)cn1 | -7.54%
CC(NC(=O)NCCCn1ccnc1)c1ccc2c(c1)CCC(=O)N2 (configuration not stated) | 43.4%
Cc1noc(NC(=O)c2ccc(C)c(F)c2)n1 | 41%
CC(NC(=O)NCCCn1cccn1)c1ccc2c(c1)NC(=O)CO2 (configuration not stated) | 46.4%
N#Cc1cccc(S(=O)(=O)NC2CCN(Cc3ccccc3)C2=O)c1 (configuration not stated) | -2.45%
COc1cc(C(=O)Nc2c(C)noc2C)ccc1C | 1.7%
CCS(=O)(=O)N(C)C(=O)c1cc(C)n(-c2cccc(OC)c2)c1C | 27.9%
Cc1cnn(CC2CN(c3cnc4ccccc4n3)CCO2)c1 (configuration not stated) | 48.4%
Cc1cc(CN2CCN(CC(O)C(C)(C)C)CC2)no1 (configuration not stated) | 9.4%
CC(C)c1n[nH]c(C(=O)Nc2ccnn2C(C)C)c1Br | 45.8%
Cc1cc(CN2CCN(CC(O)c3ccccc3)CC2)no1 (configuration not stated) | 0.624%
COc1cccc2cc(CNC(=O)N3CCCC(O)C3)oc12 (configuration not stated) | 46.8%
CNS(=O)(=O)CCCN1CCCC1c1noc(C2CC2)n1 (configuration not stated) | -6.19%
Cc1nc(CN2CCCC(NCCOc3ccccc3)C2)no1 (configuration not stated) | -5.84%
Cc1cc(C)n(C2CCCN(C(=O)Cc3csc(C)n3)C2)n1 (configuration not stated) | 12.8%
Cc1nc(CN2CCCC(NCCOCC(F)(F)F)C2)no1 (configuration not stated) | 24.6%
COc1ccccc1CC(=O)N1CCCC(n2nc(C)cc2C)C1 (configuration not stated) | 2.04%
CN(Cc1ncc(C(C)(C)C)o1)C1CCCN(c2cccnn2)C1 (configuration not stated) | -11.9%
Cc1nccn1CC1CCCN1S(=O)(=O)Cc1ccon1 (configuration not stated) | 4.51%
Cn1cc(C2CCCN2C(=O)Cc2n[nH]c3ccccc23)cn1 (configuration not stated) | 40.1%
CCC(CC)C(CNC(=O)Nc1cc(C)nn1C)N1CCOCC1 (configuration not stated) | 36.9%
